This data set can be described thus: Pharmacokinetic study in rat plasma after oral administration of Shenyanyihao oral solution (UPLC-MS/MS, noncompartmental). The note with it: for Cmax / half-life / MRT / Tmax: male, Sprague-Dawley; for Cmax: plasma; for MRT: read-out: MRT0‐∞. In kind it is in vivo, Sprague-Dawley rats. How it is done:
Male Sprague-Dawley rats (180–220 g) were purchased from Shanghai SLAC Laboratory Animal Co., Ltd. (Shanghai, China) and housed in an environmentally controlled room with a natural light-dark cycle for 7 days before the experiment was carried out. The male Sprague-Dawley rats were randomly given a dose of 10 g/kg/day of Shenyanyihao oral solution by oral administration for pharmacokinetic experiments. All animal experiments were carried out according to the Guidelines for the Care and Use of Laboratory Animals and were approved by the Animal Ethics Committee of the Second Military Medical University.
The protein precipitation with methanol was applied for sample preparation. 50 μl of plasma spiked with 50 μl of mixed IS solution were thoroughly mixed with 100 μl methanol by vortexing for 30 s. The mixture was centrifuged at 12,000 rpm for 5 min. An aliquot of 100 μl from the supernatant was transferred and subsequently evaporated to dryness by vacuum concentration. Five μl of the supernatant was transferred for the UPLC-MS/MS analysis.
The analytes in plasma were measured by a simple and sensitive UPLC-MS/MS method. Chromatographic analysis was performed on an Agilent 1290 Infinity UPLC system consisting of a binary pump, a surveyor autosampling system, and a thermostatted column compartment. An Agilent Poroshell 120 EC-C18 column (3.0 mm × 100 mm, 2.7 μm) was used for chromatographic separation. The mobile phases of A (acetonitrile) and B (0.1% formic acid aqueous solution) were eluted at a flow rate of 0.4 ml/min with the following gradient conditions: 0-5 min, 50% A; 5-6 min, 50%-90% A; and 6-10 min, 90% A. The column temperature was maintained at 25°C, the autosampler was conditioned at 4°C, and the injection volume was 5 μl. The analysis time was 10 min per sample. An Agilent 6470 tandem mass spectrometer (Agilent Technologies, USA) equipped with an Agilent Jet Stream Technology (AJS) electrospray source interface (ESI) was used for MS detection. The mass spectrometric detection was optimized simultaneously in the positive and negative ion modes by multiple reaction monitoring (MRM). The main MS parameters of the ionized chamber are as follows: capillary voltage at 4000 V (positive)/3500 V (negative), gas temperature at 350°C, drying gas flow at 11 l/min, nebulizer pressure at 40 psi, sheath gas temperature at 400°C, and sheath gas flow at 11 l/min. Data acquisition and analysis were performed using the Agilent MassHunter WorkStation version B.07.00.
The rats were administered orally with Shenyanyihao oral solution. Blood samples from the ophthalmic venous plexus taken at 0.08, 0.17, 0.25, 0.33, 0.5, 1, 1.5, 2, 4, 6, 8, 12, 24, and 48 h after oral administration and at 0 h (predose) were collected (0.2 ml) into heparinized centrifuge tubes. The blood samples were immediately centrifuged at 4000 rpm at 4°C for 5 min, and the supernatant plasma was transferred into another tube and stored at -80°C until treatment.
Pharmacokinetic parameters were analyzed by a noncompartmental method using the WinNonlin7.0 pharmacokinetic program (Pharsight Corp., USA). The maximum concentration (Cmax) and time to reach the maximum concentration (Tmax ) were measured from values obtained from the concentration-time curve. All results were expressed as mean ± standard deviation (SD).

[1] abbreviates: rat, po, 10 g/kg/day, rat plasma, oral administration of Shenyanyihao oral solution 10 g/kg/day, n = 6, mean ± SD.
[2] abbreviates: rat plasma, oral administration of Shenyanyihao oral solution 10 g/kg/day, n = 6, mean ± SD.

Values joined by “and” are separate entries in the source; they are usually repeats but may differ in a detail not shown here. Identical values can stand only once.

Consider `O=C(/C=C/c1ccc(O)c(O)c1)O[C@@H]1C[C@](O)(C(=O)O)C[C@@H](O)[C@H]1O` [Chlorogenic acid, chlorogenic acid], for which the concentration under setting [1] peaked (Cmax) at 3.53 ± 0.52 ng/mL. In addition, under setting [2], the half-life (as a rule, how long it takes for the measured level to halve) was 16.7 ± 3.32 h; the MRT was 15.4 ± 3.31 h; the “AUC0‐t” value is 17.05 ± 2.86 ng/ml∗h; the “AUC0‐∞” value came to 21.95 ± 3.34 ng/ml∗h. Besides, under setting [2], the “AUMC0‐∞” value turned out to be 338.84 ± 99.46 ng/ml∗h^2, the CL amounted to 697.2 ± 113 mL/min/kg and the V d turned out to be 1001.03 ± 202.53 L/kg.

For the compound `COc1cc(/C=C/C(=O)O)ccc1O` [Ferulic acid, ferulic acid], where the note is “rat, in vivo, po, 10 g/kg/day”, the “AUC0‐t” value was determined as 76.39 ± 21.43 ng/ml∗h, the “AUC0‐∞” value is 95.70 ± 25.36 ng/ml∗h, the “MRT0‐∞” value was 12.50 ± 4.16 h and the V d amounted to 18.01 ± 5.2 L/kg.

For `O=c1c(O[C@@H]2O[C@H](CO)[C@@H](O)[C@H](O)[C@H]2O)c(-c2ccc(O)c(O)c2)oc2cc(O)cc(O)c12` [Isoquercitrin, isoquercitrin], the Cmax (commonly the peak of the concentration-time curve) under setting [1] stood at 1.65 ± 0.23 ng/mL. Moreover, under setting [2], the time to peak (Tmax) (usually the time at which the peak concentration occurs) was determined as 0.5 h, the half-life was 26.4 ± 3.89 h, the MRT came to 33.7 ± 3.63 h and the “AUC0‐t” value is 4.75 ± 0.68 ng/ml∗h. Under setting [2], the “AUC0‐∞” value was 8.98 ± 1.33 ng/ml∗h, the “AUMC0‐∞” value is 304.35 ± 69.29 ng/ml∗h^2, the CL is 56.7 ± 8.33 mL/min/kg and the V d was determined as 127.91 ± 13.82 L/kg.

In the case of `O=C(/C=C/c1ccc(O)c(O)c1)O[C@H]1[C@H](O[C@@H]2O[C@H](CO)[C@@H](O)[C@H](O)[C@H]2O)[C@@H](O)[C@H](OCCc2ccc(O)c(O)c2)O[C@@H]1CO` [Plantamajoside, plantamajoside], under setting [2], the “AUC0‐t” value amounted to 3.99 ± 0.44 ng/ml∗h, the “AUC0‐∞” value is on record as 5.01 ± 0.71 ng/ml∗h, the “AUMC0‐∞” value is given as 66.31 ± 28.63 ng/ml∗h^2 and the C max was determined as 1.31 ± 0.23 ng/mL. For the same compound, under setting [2], the CL amounted to 78 ± 12.8 mL/min/kg, the “MRT0‐∞” value was determined as 12.76 ± 4.47 h, the T max is 1.40 ± 0.22 h and the V d worked out at 79.97 ± 18.00 L/kg. The “t 1/2” value under setting [2] was found to be 12.33 ± 3.92 h.

With `O=C(O)c1ccc(O)c(O)c1` [Protocatechuic acid, protocatechuic acid], under setting [1], the Cmax was 26.2 ± 11.6 ng/mL. For the same compound, under setting [2], the Tmax came to 0.5 h, the half-life was 11.3 ± 2.23 h, the MRT stood at 6.6 ± 2.26 h and the “AUC0‐t” value turned out to be 41.96 ± 11.42 ng/ml∗h. For the same compound, under setting [2], the “AUC0‐∞” value worked out at 45.80 ± 12.60 ng/ml∗h, the “AUMC0‐∞” value is 307.02 ± 152.54 ng/ml∗h^2, the CL was determined as 25.3 ± 7.83 mL/min/kg and the V d amounted to 24.09 ± 4.86 L/kg.

With `O=C(O)[C@H](O)Cc1ccc(O)c(O)c1` [Danshensu], under setting [2], the “AUC0‐t” value is 556.04 ng/ml∗h and 556.04 ± 165.66 ng/ml∗h; the “AUC0‐∞” value is 569.72 ng/ml∗h and 569.72 ± 165.31 ng/ml∗h; the “AUMC0‐∞” value was found to be 2049.56 ± 1061.35 ng/ml∗h^2; the C max was 181.79 ± 59.58 ng/mL. For the same compound, under setting [2], the CL was determined as 41.2 ± 14.3 mL/min/kg, the “MRT0‐∞” value amounted to 3.56 ± 1.71 h, the V d was 13.67 ± 8.51 L/kg and the “t 1/2” value is recorded as 3.91 ± 2.34 h.

`O=C(O)[C@H]1O[C@@H](Oc2cc3oc(-c4ccccc4)cc(=O)c3c(O)c2O)[C@H](O)[C@@H](O)[C@@H]1O` [Baicalin, baicalin] displayed a Cmax under setting [1] of over 2500 ng/mL. Further, under setting [2], the Tmax stood at 2.8 ± 1.1 h, the half-life is 5.01 ± 0.52 h, the MRT was determined as 8.71 ± 2 h and the “AUC0‐t” value was found to be 26525.1 ± 15523.7 ng/ml∗h. Besides, under setting [2], the “AUC0‐∞” value is given as 26566.8 ± 15520.4 ng/ml∗h, the “AUMC0‐∞” value stood at 229094.2 ± 146621.6 ng/ml∗h^2, the C max is 2983.4 ± 1344.3 ng/mL and the CL was found to be 28.5 ± 15 mL/min/kg. This compound had a V d under setting [2] of 12.89 ± 8.01 L/kg.

In turn, `O=c1cc(-c2ccccc2)oc2cc(O)c(O)c(O)c12` [Baicalein, baicalein] registered a Cmax under setting [1] of 14.2 ± 2.59 ng/mL. Further, under setting [2], the Tmax worked out at 3.6 ± 0.89 h, the half-life is 11.7 ± 4.78 h, the MRT worked out at 15.2 ± 5.91 h and the “AUC0‐t” value is listed as 106.77 ± 46.19 ng/ml∗h. Under setting [2], the “AUC0‐∞” value came out at 128.95 ± 53.59 ng/ml∗h, the “AUMC0‐∞” value turned out to be 2190.95 ± 1741.10 ng/ml∗h^2, the CL stood at 145 ± 50.5 mL/min/kg and the V d was found to be 131.54 ± 23.79 L/kg.

As to `C[N+]1(C)CCC[C@H]1C(=O)[O-]` [Stachydrine, stachydrine], under setting [2], the “AUC0‐t” value was determined as 39256.8 ± 4031.7 ng/ml∗h, the “AUC0‐∞” value is recorded as 40196.0 ± 4088.2 ng/ml∗h, the “AUMC0‐∞” value is 515393.7 ± 55002.7 ng/ml∗h^2 and the C max was 2673.0 ± 163.0 ng/mL. Under setting [2], the CL stood at 1 ± 0.17 mL/min/kg, the “MRT0‐∞” value was 12.82 ± 0.25 h, the T max worked out at 3.20 ± 1.10 h and the V d worked out at 0.76 ± 0.11 L/kg. In addition, under setting [2], the “t 1/2” value turned out to be 9.09 ± 0.51 h. Where the note is “rat plasma, oral administration of Shenyanyihao oral solution 10 g/kg/day, n = 6, mean ± SD, listed as stachydine”, this compound came in with a C max of over 2500 ng/mL.

Source of the values: publication PMC7443224, “An UPLC-MS/MS Method for Simultaneous Quantification of the Components of Shenyanyihao Oral Solution in Rat Plasma” (BioMed Research International, 2020).
